The source of these data is US20120151636A1, “Peptides for Stimulating Plant Disease Resistance” (The Regents of the University of California, priority 2009, published 2012).

Entries after “also recorded” stand apart in the source; their conditions may differ.

For one test, the target named is T1, Myc-XA21 (Oryza sativa subsp. indica, UniProt Q1MX30).
T1 construct: expressed in transfected cells; host or cells: leaf extract of a Kitaake (Oryza sativa ssp. japonica) transgenic rice line carrying Myc-XA21
T1 sequence (Q1MX30 24-1025): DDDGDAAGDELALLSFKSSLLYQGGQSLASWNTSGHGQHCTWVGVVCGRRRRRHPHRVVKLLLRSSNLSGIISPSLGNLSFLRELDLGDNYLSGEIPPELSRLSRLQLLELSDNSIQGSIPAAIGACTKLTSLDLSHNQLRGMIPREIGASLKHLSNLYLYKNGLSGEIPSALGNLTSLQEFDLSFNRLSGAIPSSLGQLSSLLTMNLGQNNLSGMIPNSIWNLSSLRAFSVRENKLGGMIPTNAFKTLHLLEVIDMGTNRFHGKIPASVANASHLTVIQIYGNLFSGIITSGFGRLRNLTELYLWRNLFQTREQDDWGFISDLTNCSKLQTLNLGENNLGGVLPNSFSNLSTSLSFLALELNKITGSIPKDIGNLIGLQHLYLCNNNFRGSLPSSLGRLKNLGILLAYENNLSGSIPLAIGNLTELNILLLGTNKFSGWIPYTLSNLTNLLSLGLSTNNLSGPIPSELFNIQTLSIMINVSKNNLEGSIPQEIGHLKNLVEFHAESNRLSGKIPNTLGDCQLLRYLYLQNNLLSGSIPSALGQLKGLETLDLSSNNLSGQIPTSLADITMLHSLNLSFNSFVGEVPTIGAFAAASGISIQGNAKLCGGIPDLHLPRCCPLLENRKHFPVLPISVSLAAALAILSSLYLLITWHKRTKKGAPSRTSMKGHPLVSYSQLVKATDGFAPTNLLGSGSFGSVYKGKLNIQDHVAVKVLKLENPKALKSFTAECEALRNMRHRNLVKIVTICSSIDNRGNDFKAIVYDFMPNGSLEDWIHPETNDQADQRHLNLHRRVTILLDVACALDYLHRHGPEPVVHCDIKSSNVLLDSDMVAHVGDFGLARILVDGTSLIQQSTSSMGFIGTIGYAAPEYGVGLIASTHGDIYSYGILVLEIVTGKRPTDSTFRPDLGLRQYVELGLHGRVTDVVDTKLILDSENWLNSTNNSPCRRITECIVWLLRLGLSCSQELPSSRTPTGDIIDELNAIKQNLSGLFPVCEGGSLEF
As to the kind of experiment: Ax21/XA21 binding assay (cross-linking and co-immunoprecipitation). Also noted: species or system rice. The note with it: 5- to 10-fold excess competitor over HA-tagged AxY^S22; Myc-XA21 leaf extracts. As to the method:
Binding of the C terminal HA tagged AxY^S22 (AxY^S22-HA) to N-terminal tagged Myc XA21 (Myc-XA21) complex was carried out using cross-linked analysis according to methods described previously (C. Zipfel et al., Cell 125, 749 (2006); Z. Bauer, L. Gomez-Gomez, T. Boller, G. Felix, J Biol Chem 276, 45669 (2001); D. Chinchilla, Z. Bauer, M. Regenass, T. Boller, G. Felix, Plant Cell 18, 465 (2006)). Fully expanded rice leaves were harvested from five-week old Myc-XA21 transgenic and Kitaake control plants. Total proteins were extracted from five g of leaf tissue in 10 ml of ice-cold extraction buffer [0.15 M NaCl, 0.01 M Na-phosphate pH 7.2, 2 mM EDTA, 0.1% Triton X-100, 10 mM β-mercaptoethanol, 20 mM NaF, 1 mM PMSF, 1% Protease cocktail (Sigma), 2 μg/ml leupeptin, 2 μg/ml antipain, and 2 μg/ml aprotinin] […] Duplicate protein gel blots were analyzed with anti-Myc and anti-HA antibodies, respectively.

A further test concerns TP309-XA21 rice leaves. Also noted: species or system Oryza sativa ssp. japonica. The note with it: in vivo.
Another test concerns PXO99ΔraxST. More on the design: species or system Xanthomonas oryzae pv. oryzae. Particulars: in vivo.
For test [1], the target named is XA21 (in leaves of the TP309-XA21 transgenic rice line 106-17-3-37) (rice) (UniProt Q1MX30). Kind of test: cell-based or functional assay.
A further test addresses OsFLS2 (Oryza sativa subsp. japonica, UniProt Q0JA29). The note with it: in rice; cited from earlier work.

OsFLS2, sequence (Q0JA29 42-1183): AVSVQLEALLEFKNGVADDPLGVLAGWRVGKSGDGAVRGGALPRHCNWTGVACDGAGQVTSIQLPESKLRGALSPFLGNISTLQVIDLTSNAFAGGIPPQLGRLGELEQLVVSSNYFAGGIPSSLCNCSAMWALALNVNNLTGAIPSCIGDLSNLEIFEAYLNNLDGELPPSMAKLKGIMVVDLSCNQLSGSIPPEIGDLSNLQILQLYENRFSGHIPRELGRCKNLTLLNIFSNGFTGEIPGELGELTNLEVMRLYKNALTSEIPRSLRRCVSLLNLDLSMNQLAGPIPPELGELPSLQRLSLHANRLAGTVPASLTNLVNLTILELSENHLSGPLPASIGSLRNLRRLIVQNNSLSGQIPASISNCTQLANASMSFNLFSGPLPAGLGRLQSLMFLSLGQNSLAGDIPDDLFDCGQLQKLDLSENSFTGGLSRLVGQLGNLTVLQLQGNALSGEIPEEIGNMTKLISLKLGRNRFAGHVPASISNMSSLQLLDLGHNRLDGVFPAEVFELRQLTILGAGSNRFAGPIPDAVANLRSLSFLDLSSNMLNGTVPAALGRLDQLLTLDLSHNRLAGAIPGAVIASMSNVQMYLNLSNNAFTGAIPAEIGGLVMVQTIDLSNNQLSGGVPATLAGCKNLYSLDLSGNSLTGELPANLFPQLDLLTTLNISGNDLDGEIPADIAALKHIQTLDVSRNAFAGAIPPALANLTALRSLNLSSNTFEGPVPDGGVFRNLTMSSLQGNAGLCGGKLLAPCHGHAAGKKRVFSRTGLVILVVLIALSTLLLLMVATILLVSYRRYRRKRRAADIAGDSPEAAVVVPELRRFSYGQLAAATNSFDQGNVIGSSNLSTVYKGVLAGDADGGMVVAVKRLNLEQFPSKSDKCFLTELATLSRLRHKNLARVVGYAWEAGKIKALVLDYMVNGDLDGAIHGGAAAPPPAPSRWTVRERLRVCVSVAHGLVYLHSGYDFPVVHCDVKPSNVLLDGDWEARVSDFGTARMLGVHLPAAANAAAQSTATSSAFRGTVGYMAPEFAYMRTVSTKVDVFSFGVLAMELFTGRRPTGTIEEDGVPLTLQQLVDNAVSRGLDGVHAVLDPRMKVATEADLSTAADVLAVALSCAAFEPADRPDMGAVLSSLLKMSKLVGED

As to AENLS(sulfated Y)NFVEGDYVRTP [axY^S22], on Myc-XA21, the “effect of competitor on labeling of the 140 kDa band (AxY^S22/XA21 binding)” value is reported as “suppressed the labeling of this band”. In addition, in the test with TP309-XA21 rice leaves, the “activation of XA21-mediated immunity (lesion length)” value is recorded as “activated XA21-mediated immunity; also recorded: sufficient to activate XA21 mediated immunity” and the “concentration sufficient for PAMP activity” value is 1 µM. In the test with PXO99ΔraxST, the “reduction in PXO99ΔraxST population growth” value was 1000 fold and the “triggering of XA21-mediated immunity (growth curve analysis)” value is “triggered resistance to PXO99ΔraxST; also recorded: triggers immunity in TP309-XA21 rice”.
As to AENLSYNFVEGDYVRTP [axY22], in the test on PXO99ΔraxST, the “triggering of XA21-mediated immunity (growth curve analysis)” value is recorded as “unable to trigger Xa21-mediated immunity; also recorded: no detectable activity”.
For the substance “Ax21: Activator of Xa21-mediated immunity; 194 aa protein encoded by PXO_03968”, the “extent of induced resistance” value in the test with TP309-XA21 rice leaves is reported as “robust resistance”.
In test [1], AxY^S22 peptide (no HA tag) had a concentration sufficient for PAMP activity (lesion length in TP309-XA21 rice) of 1 µM and a reduction in PXO99ΔraxST population growth (growth curve analysis) of 1000 fold.
Turning to “QRLSSGLRINSAKDDAAGLAIS (Acidovorax avenae flg22; listed as Acidovorax avenae) [flg22ave, flg22 from the rice pathogen Acidovorax avenae, reference compound]”, in the test with Myc-XA21, the “effect of competitor on labeling of the 140 kDa band (AxY^S22/XA21 binding)” value was “no effect on AxY^S22/XA21 binding”. The “concentration that can induce OsFLS2-mediated response” value with OsFLS2 was 0.5 µM.
